Earlier results on 2 molecules are cited in US9434994B2, “Methods for prediction of clinical outcome to epidermal growth factor receptor inhibitors by non-small cell lung cancer patients” (The Regents of the University of Colorado, a body corporate, priority 2004, dated 2016).

The structures appear in SMILES notation.

In one data set the test system is NSCLC patients. Particulars: erlotinib versus placebo, second or third line; cited from earlier work.
Data set [1] deals with chemotherapy resistant NSCLC patients. Particulars: single agent; cited from earlier work.
The test system of a further data set is advanced BAC patients. Particulars: cited from earlier work.

Consider `C#Cc1cccc(Nc2ncnc3cc(OCCOC)c(OCCOC)cc23)c1` [erlotinib], for which the “Hazard Ratio, survival” value with NSCLC patients is reported as 0.73. For the same molecule, the response rates result in data set [1] is “about 10%”. Turning to `CC(=O)O[C@H]1C(=O)[C@@]2(C)[C@H]([C@H](OC(=O)c3ccccc3)[C@]3(O)C[C@H](OC(=O)[C@H](O)[C@@H](NC(=O)c4ccccc4)c4ccccc4)C(C)=C1C3(C)C)[C@]1(OC(C)=O)CO[C@@H]1C[C@@H]2O` [paclitaxel], the Median Survival with advanced BAC patients is recorded as 12 months.
